The source of these data is ChEMBL document CHEMBL1136597, “A structure-permeability study of small drug-like molecules” (Bioorg Med Chem Lett, 2003).

One series in a line: Permeability directional ratio (PB-A/PA-B) in Caco-2 cell. Format: ADME, cell-based. The conditions noted are these: human, read-out: PDR. (Caco-2 monolayers are a common model of the intestinal barrier.)
Take `c1ccc(-c2nn[nH]n2)c(Cn2cnc3ccccc32)c1`: the efflux ratio turned out to be 180.
Same read-out and setting: next, `c1ccc2c(c1)ncn2Cc1ccc(-c2nn[nH]n2)cc1`: 129.
For `c1cnc(Cc2cccc(-c3nn[nH]n3)c2)nc1`, the efflux ratio turned out to be 20.
Same read-out and setting: the figure for `O=C(O)c1ccc(Cn2ccnc2)cc1` is 1; for `O=C(O)c1cccc(Cn2cnc3ccccc32)c1` it is 3.
Still for that read-out and setting: next, `O=S(=O)(O)c1ccc(Cn2cnc3ccccc32)cc1`: 7.
For the compound `c1cc(Cn2cnc3ccccc32)cc(-c2nn[nH]n2)c1`, the efflux ratio was determined as 145.
The same measure, in the same setting: the figure for `N=C(N)c1cccc(Cc2ncccn2)c1` is 3.

A further series can be described thus: Distribution coefficient of octanol and phosphate buffered saline at pH 7.4. The series is classed as physicochemical. The conditions noted are these: read-out: Log Doct/PBS.
In the case of `CS(=O)(=O)Nc1cccc(Cn2cnc3ccccc32)c1`, the logD stood at 2.08.
Still for that read-out and setting: the figure for `O=C(O)c1ccc(Cn2ccnc2)cc1` is -2.1.
On to `O=C(O)c1cccc(Cn2cnc3ccccc32)c1`, for which the logD is -0.72.
Turning to `O=S(=O)(O)c1ccc(Cn2cnc3ccccc32)cc1`, the logD amounted to 1.78.
Consider `Nc1cccc(Cn2cnc3ccccc32)c1`, for which the logD was found to be 1.92.
Same read-out and setting: next, `N=C(N)c1cccc(Cc2ncccn2)c1`: -1.03.

A short description of another series: Partition coefficient (logD7.4) measured using octanol and PBS at pH7.4. The conditions noted are these: pH 7.4, read-out: LogD7.4. The series is classed as physicochemical.
For the compound `c1ccc(Cn2ccnc2)cc1` [BENZYLIMIDAZOLE], the logD was found to be 1.78.
Still for that read-out and setting: the figure for `NCc1cccc(Cn2cnc3ccccc32)c1` is 0.21.
On the same count and under the same terms, next, `NC(=O)c1cccc(Cn2cnc3ccccc32)c1`: 1.7; `NC(=O)c1cccc(Cn2ccnc2)c1`: -0.01; `NC(=O)c1cccc(Cn2cccn2)c1`: 0.71.
As to `N#Cc1cccc(Cn2cnc3ccccc32)c1`, the logD worked out at 2.47.
With `c1ccc(Cn2cnc3ccccc32)cc1`, the logD turned out to be 2.91.
The same measure, in the same setting: next, `O=C(O)c1cccc(Cc2ncccn2)c1`: -1.98; `c1cnc(Cc2cccc(-c3nn[nH]n3)c2)nc1`: -1.28.
Consider `O=C(O)c1ccc(Cn2cnc3ccccc32)cc1`, for which the logD is -0.61.
Regarding `O=C(O)Cc1ccc(Cn2cnc3ccccc32)cc1`, the logD was -1.13.
Same read-out and setting: next, `O=C(O)c1ccc(Cn2cccn2)cc1`: -1.65.
As for `NC(=O)c1cccc(Cc2ncccn2)c1`, the logD turned out to be 0.28.
The same measure, in the same setting: the figure for `O=C(O)c1ccc(Cc2ncccn2)cc1` is -2.2; for `O=C(O)Cc1ccc(Cn2ccnc2)cc1` it is -2.37; for `c1cc(Cn2cnc3ccccc32)cc(-c2nn[nH]n2)c1` it is 0.27.
Same read-out and setting: next, `N#Cc1cccc(Cc2ncccn2)c1`: 1.46; `O=C(O)Cc1ccc(Cn2cccn2)cc1`: -1.8; `NCc1cccc(Cn2cccn2)c1`: -0.77.
On the same count and under the same terms, the figure for `NCc1cccc(Cc2ncccn2)c1` is -1.11.
Turning to `N#Cc1cccc(Cn2ccnc2)c1`, the logD was 1.01.
Same read-out and setting: the figure for `O=C(O)c1cccc(Cn2cccn2)c1` is -1.62.
Consider `N#Cc1cccc(Cn2cccn2)c1`, for which the logD is 1.74.
For `NS(=O)(=O)c1ccc(Cn2cnc3ccccc32)cc1`, the logD was 1.04.
